Assay results reported in ChEMBL document CHEMBL3885881, “DrugMatrix”.

Species: Rattus norvegicus
Experiment: DrugMatrix - Regimen: Daily Repeat
Assay type: toxicity, organism-based, Sprague-Dawley
Parameters: regimen Daily Repeat, gender Male, age 6-8 weeks
Conditions: in vivo, po, […], route oral GAVAGE, dose 0.83 mg/Kg, dose level Low, vehicle .5 % CMC; for ABSOLUTE BASOPHIL / ABSOLUTE EOSINOPHIL / ABSOLUTE LYMPHOCYTE / ABSOLUTE MONOCYTE / ABSOLUTE SEGMENTED NEUTROPHIL / BASOPHIL / EOSINOPHIL / ERYTHROCYTE COUNT / HEMATOCRIT / HEMOGLOBIN / LEUKOCYTE COUNT / LYMPHOCYTE / MEAN CORPUSCULAR HEMOGLOBIN / MEAN CORPUSCULAR HEMOGLOBIN CONCENTRATION / MEAN CORPUSCULAR VOLUME / MONOCYTE / NEUTROPHIL / NUCLEATED RED BLOOD CELLS / PLATELET COUNT: tissue Blood; for ALANINE AMINOTRANSFERASE / ALBUMIN / ALKALINE PHOSPHATASE / ASPARTATE AMINOTRANSFERASE / BLOOD UREA NITROGEN / CARBON DIOXIDE / CHLORIDE / CHOLESTEROL / CREATINE PHOSPHOKINASE / CREATININE / GLUCOSE / LACTATE DEHYDROGENASE / LIPASE / PHOSPHORUS / POTASSIUM / SODIUM / TOTAL BILIRUBIN / TOTAL PROTEIN / URIC ACID: tissue Plasma

Structure (SMILES): C[C@]12CC[C@@H]3c4ccc(O)cc4CC[C@H]3[C@@H]1C[C@@H](O)[C@@H]2O [ESTRIOL]
- ABSOLUTE BASOPHIL (72 h, time 3 day): 0 CELLS/uL
- ABSOLUTE EOSINOPHIL (72 h, time 3 day): 41 CELLS/uL
- ABSOLUTE LYMPHOCYTE (72 h, time 3 day): 11813.33 CELLS/uL
- ABSOLUTE MONOCYTE (72 h, time 3 day): 115.33 CELLS/uL
- ABSOLUTE SEGMENTED NEUTROPHIL (72 h, time 3 day): 930.33 CELLS/uL
- BASOPHIL (72 h, time 3 day): 0%
- EOSINOPHIL (72 h, time 3 day): 0.33%
- ERYTHROCYTE COUNT (72 h, time 3 day): 5.37 x10E6/uL
- HEMATOCRIT (72 h, time 3 day): 33.8%
- HEMOGLOBIN (72 h, time 3 day): 13.17 G/DL
- LEUKOCYTE COUNT (72 h, time 3 day): 12.9 x10E3/uL
- LYMPHOCYTE (72 h, time 3 day): 91.33%
- MEAN CORPUSCULAR HEMOGLOBIN (72 h, time 3 day): 24.53 pg
- MEAN CORPUSCULAR HEMOGLOBIN CONCENTRATION (72 h, time 3 day): 38.97 G/DL
- MEAN CORPUSCULAR VOLUME (72 h, time 3 day): 62.9 fL
- MONOCYTE (72 h, time 3 day): 1%
- NEUTROPHIL (72 h, time 3 day): 7.33%
- NUCLEATED RED BLOOD CELLS (72 h, time 3 day): 0 /100WBC
- PLATELET COUNT (72 h, time 3 day): 1229.33 x10E3/uL
- ALANINE AMINOTRANSFERASE (72 h, time 3 day): 41.67 u/L
- ALBUMIN (72 h, time 3 day): 4.13 G/DL
- ALKALINE PHOSPHATASE (72 h, time 3 day): 500 u/L
- ASPARTATE AMINOTRANSFERASE (72 h, time 3 day): 89.33 u/L
- BLOOD UREA NITROGEN (72 h, time 3 day): 17.67 mg/dL
- CARBON DIOXIDE (72 h, time 3 day): 23.67 mmol/L
- CHLORIDE (72 h, time 3 day): 103.67 MEQ/L
- CHOLESTEROL (72 h, time 3 day): 36 mg/dL
- CREATINE PHOSPHOKINASE (72 h, time 3 day): 654.33 u/L
- CREATININE (72 h, time 3 day): 0.23 mg/dL
- GLUCOSE (72 h, time 3 day): 162 mg/dL
- LACTATE DEHYDROGENASE (72 h, time 3 day): 616.67 u/L
- LIPASE (72 h, time 3 day): 10.67 u/L
- PHOSPHORUS (72 h, time 3 day): 11.97 mg/dL
- POTASSIUM (72 h, time 3 day): 6.03 MEQ/L
- SODIUM (72 h, time 3 day): 144.8 MEQ/L
- TOTAL BILIRUBIN (72 h, time 3 day): 0.17 mg/dL
- TOTAL PROTEIN (72 h, time 3 day): 6 G/DL
- URIC ACID (72 h, time 3 day): 1.6 mg/dL
- ABSOLUTE BASOPHIL (120 h, time 5 day): 0 CELLS/uL
- ABSOLUTE EOSINOPHIL (120 h, time 5 day): 0 CELLS/uL
- ABSOLUTE LYMPHOCYTE (120 h, time 5 day): 12894 CELLS/uL
- ABSOLUTE MONOCYTE (120 h, time 5 day): 233.33 CELLS/uL
- ABSOLUTE SEGMENTED NEUTROPHIL (120 h, time 5 day): 972.67 CELLS/uL
- BASOPHIL (120 h, time 5 day): 0%
- EOSINOPHIL (120 h, time 5 day): 0%
- ERYTHROCYTE COUNT (120 h, time 5 day): 5.98 x10E6/uL
- HEMATOCRIT (120 h, time 5 day): 36.97%
- HEMOGLOBIN (120 h, time 5 day): 13.8 G/DL
- LEUKOCYTE COUNT (120 h, time 5 day): 14.1 x10E3/uL
- LYMPHOCYTE (120 h, time 5 day): 91.33%
- MEAN CORPUSCULAR HEMOGLOBIN (120 h, time 5 day): 23.07 pg
- MEAN CORPUSCULAR HEMOGLOBIN CONCENTRATION (120 h, time 5 day): 37.33 G/DL
- MEAN CORPUSCULAR VOLUME (120 h, time 5 day): 61.87 fL
- MONOCYTE (120 h, time 5 day): 1.67%
- NEUTROPHIL (120 h, time 5 day): 7%
- NUCLEATED RED BLOOD CELLS (120 h, time 5 day): 0 /100WBC
- PLATELET COUNT (120 h, time 5 day): 1068.67 x10E3/uL
- ALANINE AMINOTRANSFERASE (120 h, time 5 day): 43.67 u/L
- ALBUMIN (120 h, time 5 day): 4.23 G/DL
- ALKALINE PHOSPHATASE (120 h, time 5 day): 477 u/L
- ASPARTATE AMINOTRANSFERASE (120 h, time 5 day): 80.33 u/L
- BLOOD UREA NITROGEN (120 h, time 5 day): 17.33 mg/dL
- CARBON DIOXIDE (120 h, time 5 day): 26.33 mmol/L
- CHLORIDE (120 h, time 5 day): 101.67 MEQ/L
- CHOLESTEROL (120 h, time 5 day): 36.33 mg/dL
- CREATINE PHOSPHOKINASE (120 h, time 5 day): 414 u/L
- CREATININE (120 h, time 5 day): 0.19 mg/dL
- GLUCOSE (120 h, time 5 day): 148.33 mg/dL
- LACTATE DEHYDROGENASE (120 h, time 5 day): 577 u/L
- LIPASE (120 h, time 5 day): 8.33 u/L
- PHOSPHORUS (120 h, time 5 day): 10.9 mg/dL
- POTASSIUM (120 h, time 5 day): 6.26 MEQ/L
- SODIUM (120 h, time 5 day): 144.2 MEQ/L
- TOTAL BILIRUBIN (120 h, time 5 day): 0.23 mg/dL
- TOTAL PROTEIN (120 h, time 5 day): 6.3 G/DL
- URIC ACID (120 h, time 5 day): 1.63 mg/dL
